In ChEMBL document CHEMBL1147619, “Syntheses and EGFR kinase inhibitory activity of 6-substituted-4-anilino [1,7] and [1,8] naphthyridine-3-carbonitriles” (Bioorg Med Chem Lett, 2004):
≈ marks a conversion by molar mass, not a printed value.

Legend:
[1] = target: T1, Epidermal growth factor receptor (Homo sapiens, UniProt P00533); assay: Inhibition of peptide substrate phosphorylation by epidermal growth factor receptor
[2] = target: T1, Epidermal growth factor receptor; assay: Inhibition of epidermal growth factor receptor kinase autophosphorylation
[3] = tested on: SK-BR-3; assay: Inhibition of SKBr3 human carcinoma cell proliferation; assay type: functional, cell-based
[4] = tested on: A-431; assay: Inhibition of A431 human carcinoma cell proliferation; assay type: functional, cell-based
[5] = tested on: SW-620; assay: Inhibition of SW620 human carcinoma cell proliferation; assay type: functional, cell-based

T1 sequence (P00533 whole entry): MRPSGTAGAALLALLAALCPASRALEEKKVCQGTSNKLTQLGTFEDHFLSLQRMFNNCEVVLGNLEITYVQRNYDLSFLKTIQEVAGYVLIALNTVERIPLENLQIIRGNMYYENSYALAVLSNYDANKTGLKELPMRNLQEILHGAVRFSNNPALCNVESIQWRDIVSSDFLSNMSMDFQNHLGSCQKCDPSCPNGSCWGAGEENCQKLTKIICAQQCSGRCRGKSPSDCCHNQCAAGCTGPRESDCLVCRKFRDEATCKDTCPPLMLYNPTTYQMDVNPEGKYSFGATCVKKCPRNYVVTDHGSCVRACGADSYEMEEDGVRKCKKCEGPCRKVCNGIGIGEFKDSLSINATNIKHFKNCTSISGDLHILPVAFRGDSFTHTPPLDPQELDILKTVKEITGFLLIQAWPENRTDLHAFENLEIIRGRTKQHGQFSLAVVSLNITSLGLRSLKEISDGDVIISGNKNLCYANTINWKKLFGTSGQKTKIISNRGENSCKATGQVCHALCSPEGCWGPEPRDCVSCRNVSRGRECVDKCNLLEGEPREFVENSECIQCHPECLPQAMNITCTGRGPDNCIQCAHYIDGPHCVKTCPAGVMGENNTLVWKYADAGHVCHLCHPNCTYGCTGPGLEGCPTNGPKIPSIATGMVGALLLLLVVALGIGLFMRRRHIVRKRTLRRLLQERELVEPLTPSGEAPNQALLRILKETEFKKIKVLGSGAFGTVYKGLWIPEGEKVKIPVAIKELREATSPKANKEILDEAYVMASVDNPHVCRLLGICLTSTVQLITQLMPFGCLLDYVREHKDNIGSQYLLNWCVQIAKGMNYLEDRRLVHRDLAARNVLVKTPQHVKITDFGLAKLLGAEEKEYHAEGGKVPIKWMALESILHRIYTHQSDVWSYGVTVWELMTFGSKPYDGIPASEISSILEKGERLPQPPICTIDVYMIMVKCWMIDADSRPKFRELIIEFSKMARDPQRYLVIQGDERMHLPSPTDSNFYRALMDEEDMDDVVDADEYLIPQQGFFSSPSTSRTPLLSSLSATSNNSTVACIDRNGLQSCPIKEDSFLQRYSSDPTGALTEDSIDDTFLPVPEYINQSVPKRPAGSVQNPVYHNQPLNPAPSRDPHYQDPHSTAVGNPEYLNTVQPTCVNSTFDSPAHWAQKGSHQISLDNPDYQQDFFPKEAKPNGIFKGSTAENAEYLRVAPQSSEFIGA

Compound | IC50 [1] [nM] | IC50 [2] [nM] | IC50 [3] [µg/mL] | IC50 [4] [µg/mL] | IC50 [5] [µg/mL]
CN(C)CCOc1cc2c(Nc3ccc(F)c(Cl)c3)c(C#N)cnc2cn1 | > 10000 | > 10000 | – | – | –
CC#CC(=O)Nc1cnc2ncc(C#N)c(Nc3cccc(Br)c3)c2c1 | 6270 | > 10000 | – | – | –
CN(C)C/C=C/C(=O)Nc1ccc2ncc(C#N)c(Nc3cccc(Br)c3)c2c1 | 37.2 | 123 | 0.089 (≈ 0.198 µM) | 0.23 (≈ 0.511 µM) | 2.8 (≈ 6.22 µM)
CC#CC(=O)Nc1ccc2ncc(C#N)c(Nc3cccc(Br)c3)c2c1 | 259 | > 1000 | – | – | –
CN(C)CCOc1cc2c(Nc3cccc(Br)c3)c(C#N)cnc2cn1 | > 10000 | > 10000 | – | – | –
CC#CC(=O)Nc1cnc2ncc(C#N)c(Nc3ccc(F)c(Cl)c3)c2c1 | 3760 | 6790 | – | – | –
CN(C)C/C=C/C(=O)Nc1cc2c(Nc3cccc(Br)c3)c(C#N)cnc2cn1 | 1.9 | 8.6 | 0.036 (≈ 0.0798 µM) | 0.088 (≈ 0.195 µM) | 0.356 (≈ 0.789 µM)
CC#CC(=O)Nc1ccc2ncc(C#N)c(Nc3ccc(F)c(Cl)c3)c2c1 | 330 | 1030 | – | – | –
CN(C)C/C=C/C(=O)Nc1cnc2ncc(C#N)c(Nc3cccc(Br)c3)c2c1 | 2040 | 4130 | 4.83 (≈ 10.7 µM) | 2.76 (≈ 6.12 µM) | > 5
C=CC(=O)Nc1ccc2ncc(C#N)c(Nc3cccc(Br)c3)c2c1 | 9.7 | 86.9 | – | – | –
C=CC(=O)Nc1cnc2ncc(C#N)c(Nc3cccc(Br)c3)c2c1 | 375 | 976 | – | – | –
